Measured values: patent publication EP0245209A1, “Milbemycin derivatives, their preparation and their use as pesticides” (CIBA-GEIGY AG, priority 1986, dated 1987)

Key:
Type in all cases: in vivo
[1] = test system: LI-Larven von Lucilia sericata; assay: Action against L1 larvae of Lucilia sericata (larval culture medium, mortality); conditions: reduced concentration of 100 ppm; after 4 days
Procedure: Beispiel B.2: Wirkung gegen LI-Larven von Lucilia sericata
(§1) 1 ml einer wässrigen Suspension der zu prüfenden Aktivsubstanz werden so mit 3 ml eines speziellen Larvenzuchtmediums bei ca. 50°C vermischt, dass ein Homogenisat von wahlweise 250 ppm oder 100 ppm Wirkstoffgehalt entsteht. In jede Reagenzglas-Probe werden ca. 30 Lucilia-Larven (L1) eingesetzt. Nach 4 Tagen wird die Mortalitätsrate bestimmt. Die Verbindungen aus den Herstellungsbeispielen zeigen bei 250 ppm eine Wirkung von 100 %, wobei Verbindungen aus den Herstellungsbeispielen diese Wirkung auch noch bei der reduzierten Wirkstoffkonzentration von 100 ppm erzielen, wie beispielsweise die Verbindungen Nr. 1.10, 1.18, 1.26, 1.34, 1.39, 1.43, 1.46, 1.54, 1.58, 1.62, 1.82, 1.90 und 1.114.

[2] = test system: Ll-Larven von Lucilia cuprina; assay: Action against L1 larvae of Lucilia cuprina (as B.2); conditions: niedrigere Konzentrationen (below 100 ppm)
Procedure: as §1
Beispiel B.3: Wirkung gegen Ll-Larven von Lucilia cuprina
Der Test wird wie unter B.2 beschrieben durchgeführt, jedoch mit Larven von Lucilia cuprina. […] Bei manchen Verbindungen wird dieser Effekt bereits mit niedrigeren Konzentrationen erreicht, beispielsweise mit den Verbindungen Nr. 1.34, 1.90 und 1.114.

[3] = test system: Caenorhabditis elegans; assay: Soil nematicidal action against Caenorhabditis elegans (as B.4); conditions: test as B.4
Procedure: (§2) Eier von Meloidogyne incognita werden in Sand eingemischt. Dieses Gemisch wird dann in 200 ml fassende Tontöpfe eingebracht (5000 Eier pro Topf). Am gleichen Tag wird pro Topf eine 3 Wochen alte Tomatenpflanze gepflanzt und der aus 50 %-igem Emulsionskonzentrat formulierte Wirkstoff mittels Druckapplikation in die Töpfe hineingegeben. Die eingetopften Pflanzen werden nun bei einer Temperatur von 26!1°C und einer relativen Luftfeuchtigkeit von 60 % in einem Gewächshaus aufgestellt. Nach Ablauf von 4 Wochen erfolgt eine Evaluierung durch Untersuchung der Pflanzen auf Wurzelgallbildung nach dem sogenannten Wurzelgall-Index ("Knot Index").
Beispiel B.5: Bodennematizide Wirkung gegen Caenorhabditis elegans
Der Test wird wie unter B.4 beschrieben durchgeführt, jedoch mit Caenorhabditis elegans. Die Verbindungn der Herstellungsbeispiele zeigen in diesem Test eine gute Wirksamkeit. Um eine fast vollständige Hemmung der Reproduktion zu erreichen, genügen bei manchen Verbindungen Konzentrationen von 1 ppm und weniger, wie beispielsweise bei den Verbindungen Nr. 1.39, 1.70 und 1.90 und vor allem Nr. 1.2, 1.3, 1.26, 1.43 und 1.66.

[4] = test system: Meloidogyne incognita; assay: Soil nematicidal action against Meloidogyne incognita (tomato plants, root-knot index); conditions: after 4 weeks
Procedure: Beispiel B.4: Bodennematizide Wirkung gegen Meloidogyne incognita
as §2

[5] = test system: Aedes aegypti; assay: Larvicidal action against Aedes aegypti (larvae in water); conditions: niedrigere Konzentrationen (below 3 ppm)
Procedure: Beispiel B.10: Larvizidwirkung gegen Aedes aegypti
Auf die Oberfläche von 150 ml Wasser, das sich in einem Behälter befindet, wird soviel einer 0,1 %igen acetonischen Lösung des Wirkstoffes pipettiert, dass Konzentrationen von wahlweise 12,5 ppm, 3,3 ppm und 1,6 ppm erhalten werden. Nach Verdunsten des Acetons wird der Behälter mit ca. 30-40 3 Tage alten Aedes-Larven beschickt. Nach 1, 2 und 5 Tagen wird die Mortalität geprüft.

## 13β-([-]-Menthyloxy)-carbonyloxy-milbemycin A4 [1.90]
[1]
  Wirkung (Mortalitätsrate): 100%
[2]
  Vernichtung des Schädlings: vollständige Vernichtung
[3]
  Konzentration für fast vollständige Hemmung der Reproduktion: ≤ 1 ppm
[4]
  Konzentration für fast vollständige Hemmung der Reproduktion: ≤ 1 ppm
[5]
  Abtötung sämtlicher Larven: vollständige Abtötung
